Results reported in PubChem BioAssay (NCI).
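Briefly, cells in 96-well plates were exposed to five compound concentrations for 48 h, and endpoints were estimated by linear interpolation. Here, GI50 denotes the concentration required for 50% inhibition of growth. Definition used: TGI = concentration required for complete inhibition of growth.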

Columns and labels:
Assay in all cases: inhibition of tumour cell growth, NCI panel, 48 h
786-0 renal = test system: 786-0 renal
A549 NSCLC = test system: A549 NSCLC
ACHN renal = test system: ACHN renal
BT-549 breast = test system: BT-549 breast
CAKI-1 renal = test system: CAKI-1 renal
COLO 205 colon = test system: COLO 205 colon
DU-145 prostate = test system: DU-145 prostate
EKVX NSCLC = test system: EKVX NSCLC
HCT-116 colon = test system: HCT-116 colon
HCT-15 colon = test system: HCT-15 colon
HL-60(TB) leukemia = test system: HL-60(TB) leukemia
HOP-62 NSCLC = test system: HOP-62 NSCLC
HOP-92 NSCLC = test system: HOP-92 NSCLC
HS 578T breast = test system: HS 578T breast
HT29 colon = test system: HT29 colon
IGROV1 ovarian = test system: IGROV1 ovarian
K-562 leukemia = test system: K-562 leukemia
KM12 colon = test system: KM12 colon
LOX IMVI melanoma = test system: LOX IMVI melanoma
M14 melanoma = test system: M14 melanoma
MCF7 breast = test system: MCF7 breast
MDA-MB-435 = test system: MDA-MB-435
MOLT-4 leukemia = test system: MOLT-4 leukemia
NCI-H226 lung = test system: NCI-H226 lung
NCI-H23 lung = test system: NCI-H23 lung
NCI-H460 lung = test system: NCI-H460 lung
NCI-H522 lung = test system: NCI-H522 lung
NCI/ADR-RES ovarian = test system: NCI/ADR-RES ovarian
OVCAR-3 ovarian = test system: OVCAR-3 ovarian
OVCAR-4 ovarian = test system: OVCAR-4 ovarian
OVCAR-5 ovarian = test system: OVCAR-5 ovarian
OVCAR-8 ovarian = test system: OVCAR-8 ovarian
PC-3 prostate = test system: PC-3 prostate
RPMI-8226 leukemia = test system: RPMI-8226 leukemia
RXF 393 renal = test system: RXF 393 renal
SF-268 CNS = test system: SF-268 CNS
SF-295 CNS = test system: SF-295 CNS
SF-539 CNS = test system: SF-539 CNS
SK-MEL-2 melanoma = test system: SK-MEL-2 melanoma
SK-MEL-28 melanoma = test system: SK-MEL-28 melanoma
SK-MEL-5 melanoma = test system: SK-MEL-5 melanoma
SK-OV-3 ovarian = test system: SK-OV-3 ovarian
SN12C renal = test system: SN12C renal
SNB-19 CNS = test system: SNB-19 CNS
SNB-75 CNS = test system: SNB-75 CNS
SR leukemia = test system: SR leukemia
SW-620 colon = test system: SW-620 colon
T-47D breast = test system: T-47D breast
TK-10 renal = test system: TK-10 renal
U251 CNS = test system: U251 CNS
UACC-257 melanoma = test system: UACC-257 melanoma
UACC-62 melanoma = test system: UACC-62 melanoma
UO-31 renal = test system: UO-31 renal
A498 renal = test system: A498 renal
CCRF-CEM leukemia = test system: CCRF-CEM leukemia
HCC-2998 colon = test system: HCC-2998 colon
MALME-3M melanoma = test system: MALME-3M melanoma
MDA-MB-231 breast = test system: MDA-MB-231 breast

## CCOC(=O)[C@H]1O[C@@H]1C(=O)N[C@@H](CC(C)C)C(=O)NCCc1ccc(O)cc1
786-0 renal
  GI50: > 100 µM
  TGI: > 100 µM
A549 NSCLC
  GI50: > 100 µM
  TGI: > 100 µM
ACHN renal
  GI50: > 100 µM
  TGI: > 100 µM
BT-549 breast
  GI50: > 100 µM
  TGI: > 100 µM
CAKI-1 renal
  GI50: > 100 µM
  TGI: > 100 µM
COLO 205 colon
  GI50: > 100 µM
  TGI: > 100 µM
DU-145 prostate
  GI50: > 100 µM
  TGI: > 100 µM
EKVX NSCLC
  GI50: > 100 µM
  TGI: > 100 µM
HCT-116 colon
  GI50: > 100 µM
  TGI: > 100 µM
HCT-15 colon
  GI50: > 100 µM
  TGI: > 100 µM
HL-60(TB) leukemia
  GI50: > 100 µM
  TGI: > 100 µM
HOP-62 NSCLC
  GI50: > 100 µM
  TGI: > 100 µM
HOP-92 NSCLC
  GI50: > 100 µM
  TGI: > 100 µM
HS 578T breast
  GI50: > 100 µM
  TGI: > 100 µM
HT29 colon
  GI50: > 100 µM
  TGI: > 100 µM
IGROV1 ovarian
  GI50: > 100 µM
  TGI: > 100 µM
K-562 leukemia
  GI50: 48.4 µM
  TGI: > 100 µM
KM12 colon
  GI50: > 100 µM
  TGI: > 100 µM
LOX IMVI melanoma
  GI50: > 100 µM
  TGI: > 100 µM
M14 melanoma
  GI50: > 100 µM
  TGI: > 100 µM
MCF7 breast
  GI50: > 100 µM
  TGI: > 100 µM
MDA-MB-435
  GI50: > 100 µM
  TGI: > 100 µM
MOLT-4 leukemia
  GI50: > 100 µM
  TGI: > 100 µM
NCI-H226 lung
  GI50: > 100 µM
  TGI: > 100 µM
NCI-H23 lung
  GI50: > 100 µM
  TGI: > 100 µM
NCI-H460 lung
  GI50: > 100 µM
  TGI: > 100 µM
NCI-H522 lung
  GI50: > 100 µM
  TGI: > 100 µM
NCI/ADR-RES ovarian
  GI50: > 100 µM
  TGI: > 100 µM
OVCAR-3 ovarian
  GI50: > 100 µM
  TGI: > 100 µM
OVCAR-4 ovarian
  GI50: > 100 µM
  TGI: > 100 µM
OVCAR-5 ovarian
  GI50: > 100 µM
  TGI: > 100 µM
OVCAR-8 ovarian
  GI50: > 100 µM
  TGI: > 100 µM
PC-3 prostate
  GI50: > 100 µM
  TGI: > 100 µM
RPMI-8226 leukemia
  GI50: > 100 µM
  TGI: > 100 µM
RXF 393 renal
  GI50: > 100 µM
  TGI: > 100 µM
SF-268 CNS
  GI50: > 100 µM
  TGI: > 100 µM
SF-295 CNS
  GI50: > 100 µM
  TGI: > 100 µM
SF-539 CNS
  GI50: > 100 µM
  TGI: > 100 µM
SK-MEL-2 melanoma
  GI50: > 100 µM
  TGI: > 100 µM
SK-MEL-28 melanoma
  GI50: > 100 µM
  TGI: > 100 µM
SK-MEL-5 melanoma
  GI50: > 100 µM
  TGI: > 100 µM
SK-OV-3 ovarian
  GI50: > 100 µM
  TGI: > 100 µM
SN12C renal
  GI50: > 100 µM
  TGI: > 100 µM
SNB-19 CNS
  GI50: > 100 µM
  TGI: > 100 µM
SNB-75 CNS
  GI50: > 100 µM
  TGI: > 100 µM
SR leukemia
  GI50: 41 µM
  TGI: > 100 µM
SW-620 colon
  GI50: > 100 µM
  TGI: > 100 µM
T-47D breast
  GI50: > 100 µM
  TGI: > 100 µM
TK-10 renal
  GI50: > 100 µM
  TGI: > 100 µM
U251 CNS
  GI50: > 100 µM
  TGI: > 100 µM
UACC-257 melanoma
  GI50: > 100 µM
  TGI: > 100 µM
UACC-62 melanoma
  GI50: > 100 µM
  TGI: > 100 µM
UO-31 renal
  GI50: > 100 µM
  TGI: > 100 µM

## COc1ccc2[nH]c(-c3ccccc3)c(/C=C(\C#N)S(=O)(=O)c3ccccc3)c2c1
786-0 renal
  GI50: 6.07 µM
  TGI: > 100 µM
A498 renal
  GI50: 9.31 µM
  TGI: 44.6 µM
A549 NSCLC
  GI50: 5.98 µM
  TGI: > 100 µM
ACHN renal
  GI50: 12.9 µM
  TGI: > 100 µM
BT-549 breast
  GI50: 11.6 µM
  TGI: > 100 µM
CAKI-1 renal
  GI50: 4.47 µM
  TGI: 43.4 µM
CCRF-CEM leukemia
  GI50: 6.52 µM
  TGI: > 100 µM
COLO 205 colon
  GI50: 7.35 µM
  TGI: > 100 µM
DU-145 prostate
  GI50: 10.1 µM
  TGI: > 100 µM
EKVX NSCLC
  GI50: 6.86 µM
  TGI: > 100 µM
HCC-2998 colon
  GI50: 18.7 µM
  TGI: > 100 µM
HCT-116 colon
  GI50: 3.74 µM
  TGI: > 100 µM
HCT-15 colon
  GI50: 4.02 µM
  TGI: > 100 µM
HL-60(TB) leukemia
  GI50: 2.38 µM
  TGI: 7.11 µM
HOP-62 NSCLC
  GI50: 8.38 µM
  TGI: > 100 µM
HOP-92 NSCLC
  GI50: 6.05 µM
  TGI: 36.3 µM
HS 578T breast
  GI50: 7.59 µM
  TGI: 85.5 µM
HT29 colon
  GI50: 3.49 µM
  TGI: > 100 µM
IGROV1 ovarian
  GI50: 4.79 µM
  TGI: 25.5 µM
K-562 leukemia
  GI50: 1.42 µM
  TGI: > 100 µM
KM12 colon
  GI50: 2.96 µM
  TGI: > 100 µM
LOX IMVI melanoma
  GI50: 7.4 µM
  TGI: > 100 µM
M14 melanoma
  GI50: 3.72 µM
  TGI: > 100 µM
MALME-3M melanoma
  GI50: 19.4 µM
  TGI: > 100 µM
MCF7 breast
  GI50: 3.93 µM
  TGI: > 100 µM
MDA-MB-231 breast
  GI50: 7.48 µM
  TGI: > 100 µM
MOLT-4 leukemia
  GI50: 4.7 µM
  TGI: > 100 µM
NCI-H226 lung
  GI50: 9.41 µM
  TGI: > 100 µM
NCI-H23 lung
  GI50: 7.97 µM
  TGI: > 100 µM
NCI-H460 lung
  GI50: 4.55 µM
  TGI: > 100 µM
NCI-H522 lung
  GI50: 3.98 µM
  TGI: 46.7 µM
NCI/ADR-RES ovarian
  GI50: 3.83 µM
  TGI: > 100 µM
OVCAR-3 ovarian
  GI50: 4.96 µM
  TGI: 24.4 µM
OVCAR-4 ovarian
  GI50: 8.33 µM
  TGI: > 100 µM
OVCAR-5 ovarian
  GI50: 37.3 µM
  TGI: > 100 µM
OVCAR-8 ovarian
  GI50: 7.96 µM
  TGI: > 100 µM
PC-3 prostate
  GI50: 8.3 µM
  TGI: > 100 µM
SF-268 CNS
  GI50: 13.3 µM
  TGI: > 100 µM
SF-295 CNS
  GI50: 2.79 µM
  TGI: 28.7 µM
SF-539 CNS
  GI50: 5.48 µM
  TGI: 34.7 µM
SK-MEL-2 melanoma
  GI50: 3.7 µM
  TGI: 20.3 µM
SK-MEL-28 melanoma
  GI50: 6.05 µM
  TGI: > 100 µM
SK-MEL-5 melanoma
  GI50: 3.05 µM
  TGI: 29.3 µM
SK-OV-3 ovarian
  GI50: 7.05 µM
  TGI: 66.7 µM
SN12C renal
  GI50: 7.76 µM
  TGI: > 100 µM
SNB-19 CNS
  GI50: 13.5 µM
  TGI: > 100 µM
SNB-75 CNS
  GI50: 5.92 µM
  TGI: 44.8 µM
SR leukemia
  GI50: 2.21 µM
  TGI: 15.7 µM
SW-620 colon
  GI50: 3.97 µM
  TGI: > 100 µM
T-47D breast
  GI50: 5.18 µM
  TGI: > 100 µM
TK-10 renal
  GI50: 17.5 µM
  TGI: > 100 µM
U251 CNS
  GI50: 4.59 µM
  TGI: > 100 µM
UACC-257 melanoma
  GI50: 4.92 µM
  TGI: 69 µM
UACC-62 melanoma
  GI50: 3.83 µM
  TGI: 60.7 µM
UO-31 renal
  GI50: 4.03 µM
  TGI: 34.5 µM
